# Results from patent US8715704B2, “Lure” (London School of Hygiene & Tropical Medicine, priority 2008, dated 2014).
# Where a name gives a salt, the structure may show the parent alone.
# Experiments:
# [1] = test system: Dermatophagoides pteronyssinus; assay: Semi-field carpet disc lure bioassay with sticky trap; assay type: in vivo; settings: 10 ng/10 μl neryl formate in hexane on filter paper v. hexane; cut pile and loop pile carpet; 1-40 min
# Method: (§1) Initially, a bioassay was designed to test the efficacy of neryl formate in attracting populations of the American house dust mite, Dermatophagoides farinae, and the European house dust mite, D. pteronyssinus, from carpet sections. The bioassay involved the placement of D. farinae and D. pteronyssinus onto cut carpet discs (5 cm in diameter) which were placed underneath a glass Petri dish to maintain humidity. Two types of carpet (both obtained from Heuga Home Flooring BV) were tested: cut pile (Simply Soft Aquarius) and loop pile (Working Week Boucle Ink Pad). Aliquots of a 10 ng/10 μl neryl formate solution (in hexane) were used for the lure treatment, whilst hexane alone was used for the control. Both solutions were injected onto filter paper discs (2 cm diameter) and placed into the centre of the carpet discs. After an allocated time interval (1, 5, 10, 20 or 40 min), a sticky trap was placed onto the carpet to capture the mites, and subsequently placed under a microscope to record the amount and position of the mites, to ascertain if the mites had moved from their original position. Data were analysed using a generalized linear model assuming a binomial distribution with a logit link and dispersion parameter equal to 1.0 (see Table 1). The analysis of deviance for both responses was obtained using the MODEL procedure as implemented in GenStat 8.0 (Rothamsted Research).
# [2] = test system: Dermatophagoides farinae; assay: as above; assay type: in vivo; settings: 10 ng/10 μl neryl formate in hexane on filter paper v. hexane; cut pile and loop pile carpet; 1-40 min
# Method: as §1
# [3] = test system: Dermatophagoides pteronyssinus; assay: Y-tube olfactometer behavioural bioassay; assay type: in vivo; settings: for global responses (males and females) to the arm containing neryl formate: x^2=11.025, P<0.01, n=40
# Method: (§2) A Y-tube olfactometer was used to observe the behavioural responses elicited by house dust mites, as described previously (Skelton et al., in press). For each experiment, a treatment and control stimulus was added (1 μl) to separate filter paper discs (1.5 cm diameter), allowed to dry for 1 min, and placed into each arm of the olfactometer. A power analysis was carried out at 80% power, 95% significance; to calculate appropriate sample sizes to see 40% difference in effect (70% to treatment) (STATA 8.2 software). […] Treatments comprised: (1) chromatography fractions derived from the D. farinae extract .v. hexane, (2) neryl formate (10 & 100 ng/μl) .v. hexane, (3) a female D. farinae extract .v. neryl formate, (4) a male D. farinae extract .v. neryl formate, and (5) a female D. pteronyssinus extract .v. neryl formate. Categorical data from the Y-tube olfactometer bioassays were tested with a Chi-squared test for goodness of fit, with a Yates correction factor (preference to a particular arm) (Fowler et al., 1998). Time data were log 10-transformed prior to parametric data analysis. A three-way ANOVA (Minitab 11 for Windows) was carried out to analyse if the log time to make a decision in the treatment arm (neryl formate) was affected by the concentration of neryl formate, gender and house dust mite species studied.
# [4] = test system: Dermatophagoides farinae; assay: Y-tube olfactometer behavioural bioassay; assay type: in vivo
# Method: as §2
# [5] = test system: Caloglyphus polyphyllae mites; settings: Shimizu et al., 2001; cited from earlier work
# [6] = test system: Dermatophagoides farinae; assay: Acaricide lethal dosage bioassay; assay type: in vivo
# [7] = test system: Lardoglyphus konoi; settings: 10 ng/μl; Kuwahara et al., 1991; cited from earlier work
# [8] = 10 ng v. hexane, x^2=6.05, P<0.05, n=20
structure (smiles),measurement,setting,value
"CC(C)=CCC/C(C)=C\COC=O [neryl formate, (Z)-3,7-dimethyl-2,6-octadienyl formate]",number of mites retrieved on sticky traps,[1],significantly increased
same,number of mites retrieved on sticky traps,[2],significantly increased
same,response of females to neryl formate,"[3]; 10 ng v. hexane, x^2=4.05, P<0.05, n=20",significant response
same,response of males to neryl formate,[3]; [8],significant response
same,global responses (males and females) to the arm containing neryl formate,[3]; 10 ng v. hexane,significant
same,response of females to neryl formate,"[3]; 100 ng v. hexane, x^2=8.45, P<0.01, n=20",significant response
same,global responses (males and females) to the arm containing neryl formate,[3]; 100 ng v. hexane,significant
same,response to synthetic neryl formate or con-specific extract,"[3]; females, v. female D. pteronyssinus extract, x^2=0.06, P=0.80, n=16",not significantly different
same,response of females to neryl formate,[4]; [8],significant response
same,global responses of males and females to the arm containing neryl formate,"[4]; 10 ng v. hexane, x^2=9.025, P<0.01, n=40",significant
same,global responses of males and females to the arm containing neryl formate,"[4]; 100 ng v. hexane, x^2=4.225, P<0.05, n=40",significant
same,response of males to neryl formate,"[4]; 100 ng v. hexane, x^2=6.05, P<0.05, n=20",significant response
same,response to neryl formate or con-specific extract,"[4]; females, v. female D. farinae extract, x^2=1.38, P=0.24, n=18",no significant difference
same,response to synthetic neryl formate or con-specific extract containing naturally produced neryl formate,"[4]; males, v. male D. farinae extract, x^2=0.10, P=0.75, n=14",no significant difference
CC(C)=CC/C=C(/C=O)CC=O [β-acaridial],amount at which mites significantly respond,[5],10 ng
C/C=C(\C)C(=O)O[C@H]1C[C@@H](OC(C)=O)[C@@]2(C(=O)OC)CO[C@H]3[C@@H](O)[C@@](C)([C@]45O[C@@]4(C)[C@H]4C[C@@H]5O[C@@H]5OC=C[C@@]54O)[C@H]4[C@]1(CO[C@]4(O)C(=O)OC)[C@@H]32 [azadirachtin],mortality,[6],little mortality
"CCC[C@@H](C)C[C@@H](C)C[C@@H](C)C[C@@H](C)OC=O [(1R,3R,5R,7R) lardolure, (1R,3R,5R,7R)-1,3,5,7-tetramethyldecyl formate]",concentration at which mites significantly respond,[7],10 ppm
